Measurements published in patent US12123010B2, “Plants having increased tolerance to herbicides” (BASF SE, priority 2017, dated 2024).

Assays:
[1] = target: Wild Type PPO Enzyme (Amaranthus PPO2, SEQ ID NO: 1) (Amaranthus tuberculatus, UniProt Q0NZW9); test: PPO enzyme assay (recombinant), wild type; format: biochemical
[2] = system: Variant PPO Enzyme R128A, F420M (Amaranthus PPO2); format: biochemical; details: variant R128A, F420M vs wild type
[3] = system: Transgenic T2 Arabidopsis plants and ARBTH WT MC24 non-transgenic; test: Greenhouse post spray test, injury 14 DAT (Tables ii, iii); format: in vivo, Arabidopsis thaliana; details: Arabidopsis thaliana, 336 h, Table ii; for pest or weed control at 50 g/ha: 50 g ai/ha; for pest or weed control at 100 g/ha: 100 g ai/ha; for pest or weed control at 200 g/ha: 200 g ai/ha;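 for all read-outs here: value is percent injury to the sprayed plants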

Sequence of Wild Type PPO Enzyme (Amaranthus PPO2, SEQ ID NO: 1) (Q0NZW9 1-534): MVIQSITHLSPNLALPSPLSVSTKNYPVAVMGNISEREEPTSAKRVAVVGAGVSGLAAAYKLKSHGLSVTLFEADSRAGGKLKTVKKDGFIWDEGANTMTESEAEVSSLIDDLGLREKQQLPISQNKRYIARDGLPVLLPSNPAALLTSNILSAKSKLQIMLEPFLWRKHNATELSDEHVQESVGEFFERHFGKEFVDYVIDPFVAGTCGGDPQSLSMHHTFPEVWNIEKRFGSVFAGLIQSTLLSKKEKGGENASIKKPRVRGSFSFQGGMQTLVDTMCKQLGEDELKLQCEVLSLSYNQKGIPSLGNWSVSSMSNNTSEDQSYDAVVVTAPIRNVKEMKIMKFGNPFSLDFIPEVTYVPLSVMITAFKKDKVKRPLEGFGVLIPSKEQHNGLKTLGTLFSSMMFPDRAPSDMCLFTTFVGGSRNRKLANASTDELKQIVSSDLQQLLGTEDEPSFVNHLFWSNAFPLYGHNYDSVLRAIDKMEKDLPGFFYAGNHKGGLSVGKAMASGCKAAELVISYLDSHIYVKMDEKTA

COCCOC(=O)COc1ncccc1Oc1nc(-n2c(=O)cc(C(F)(F)F)n(C)c2=O)c(F)cc1Cl [Uracilpyridine 19, 2-methoxyethyl 2-[[3-[[3-chloro-5-fluoro-6-[3-methyl-2,6-dioxo-4-(trifluoromethyl)pyrimidin-1-yl]-2-pyridyl]oxy]-2-pyridyl]oxy]acetate]
IC50 [1]: 0.248 nM | Tolerance Factor (R/S) [2]: 503

CCOC(=O)COc1ccccc1Oc1nc(-n2c(=O)c(C)c(C(F)(F)F)n(C)c2=O)c(F)cc1Cl [Uracilpyridine 12, ethyl 2-[2-[[3-chloro-6-[3,5-dimethyl-2,6-dioxo-4-(trifluoromethyl)pyrimidin-1-yl]-5-fluoro-2-pyridyl]oxy]phenoxy]acetate]
IC50 [1]: 0.212 nM | Tolerance Factor (R/S) [2]: 536

CC(C)COC(=O)COc1ncccc1Oc1nc(-n2c(=O)cc(C(F)(F)F)n(C)c2=O)c(F)cc1Cl [Uracilpyridine 17, isobutyl 2-[[3-[[3-chloro-5-fluoro-6-[3-methyl-2,6-dioxo-4-(trifluoromethyl)pyrimidin-1-yl]-2-pyridyl]oxy]-2-pyridyl]oxy]acetate]
IC50 [1]: 0.113 nM | Tolerance Factor (R/S) [2]: 406

C#CCOC(=O)COc1ncccc1Oc1nc(-n2c(=O)cc(C(F)(F)F)n(C)c2=O)c(F)cc1Cl [Uracilpyridine 14, prop-2-ynyl 2-[[3-[[3-chloro-5-fluoro-6-[3-methyl-2,6-dioxo-4-(trifluoromethyl)pyrimidin-1-yl]-2-pyridyl]oxy]-2-pyridyl]oxy]acetate]
IC50 [1]: 0.234 nM | Tolerance Factor (R/S) [2]: 675

CCOC(=O)COc1ccc(F)cc1Oc1nc(-n2c(=O)cc(C(F)(F)F)n(C)c2=O)c(F)cc1Cl [Uracilpyridine 7, ethyl 2-[2-[[3-chloro-5-fluoro-6-[3-methyl-2,6-dioxo-4-(trifluoromethyl)pyrimidin-1-yl]-2-pyridyl]oxy]-4-fluoro-phenoxy]acetate]
pest or weed control at 50 g/ha ([3]; ALOMY_PPO2_R137L_F438V event F): 0% | pest or weed control at 100 g/ha ([3]; ALOMY_PPO2_R137L_F438V event F): 18% | pest or weed control at 200 g/ha ([3]; ALOMY_PPO2_R137L_F438V event F): 13% | pest or weed control at 50 g/ha ([3]; ALOMY_PPO2_R137L_F438V event G): 0% | pest or weed control at 100 g/ha ([3]; ALOMY_PPO2_R137L_F438V event G): 0% | pest or weed control at 200 g/ha ([3]; ALOMY_PPO2_R137L_F438V event G): 8% | pest or weed control at 50 g/ha ([3]; AMATU_PPO2_L397E_F420V event D): 0% | pest or weed control at 100 g/ha ([3]; AMATU_PPO2_L397E_F420V event D): 0% | pest or weed control at 200 g/ha ([3]; AMATU_PPO2_L397E_F420V event D): 10% | pest or weed control at 50 g/ha ([3]; AMATU_PPO2_L397E_F420V event L): 0% | pest or weed control at 100 g/ha ([3]; AMATU_PPO2_L397E_F420V event L): 0% | pest or weed control at 200 g/ha ([3]; AMATU_PPO2_L397E_F420V event L): 33% | pest or weed control at 50 g/ha ([3]; AMATU_PPO2_R128A_F420V event A): 13% | pest or weed control at 100 g/ha ([3]; AMATU_PPO2_R128A_F420V event A): 50% | pest or weed control at 200 g/ha ([3]; AMATU_PPO2_R128A_F420V event A): 70% | pest or weed control at 50 g/ha ([3]; AMATU_PPO2_R128A_F420V event D): 33% | pest or weed control at 100 g/ha ([3]; AMATU_PPO2_R128A_F420V event D): 65% | pest or weed control at 200 g/ha ([3]; AMATU_PPO2_R128A_F420V event D): 75%

Cn1c(C(F)(F)F)cc(=O)n(-c2nc(Oc3cccnc3OCC(=O)OCC(F)F)c(Cl)cc2F)c1=O [Uracilpyridine 16, 2,2-difluoroethyl 2-[[3-[[3-chloro-5-fluoro-6-[3-methyl-2,6-dioxo-4-(trifluoromethyl)pyrimidin-1-yl]-2-pyridyl]oxy]-2-pyridyl]oxy]acetate]
IC50 [1]: 0.175 nM | Tolerance Factor (R/S) [2]: 508

Cn1c(C(F)(F)F)cc(=O)n(-c2nc(Oc3cccnc3OCC(=O)OCC3CC3)c(Cl)cc2F)c1=O [Uracilpyridine 15, cyclopropylmethyl 2-[[3-[[3-chloro-5-fluoro-6-[3-methyl-2,6-dioxo-4-(trifluoromethyl)pyrimidin-1-yl]-2-pyridyl]oxy]-2-pyridyl]oxy]acetate]
IC50 [1]: 0.22 nM | Tolerance Factor (R/S) [2]: 195

CCOC(=O)COc1ccccc1Oc1nc(-n2c(=O)cc(C(F)(F)F)n(C)c2=O)ccc1Br [Uracilpyridine 6, ethyl 2-[2-[[3-bromo-6-[3-methyl-2,6-dioxo-4-(trifluoromethyl)pyrimidin-1-yl]-2-pyridyl]oxy]phenoxy]acetate]
pest or weed control at 50 g/ha ([3]; ALOMY_PPO2_R137L_F438V event F): 0% | pest or weed control at 100 g/ha ([3]; ALOMY_PPO2_R137L_F438V event F): 0% | pest or weed control at 200 g/ha ([3]; ALOMY_PPO2_R137L_F438V event F): 18% | pest or weed control at 50 g/ha ([3]; ALOMY_PPO2_R137L_F438V event G): 0% | pest or weed control at 100 g/ha ([3]; ALOMY_PPO2_R137L_F438V event G): 0% | pest or weed control at 200 g/ha ([3]; ALOMY_PPO2_R137L_F438V event G): 0% | pest or weed control at 50 g/ha ([3]; AMATU_PPO2_L397E_F420V event D): 0% | pest or weed control at 100 g/ha ([3]; AMATU_PPO2_L397E_F420V event D): 0% | pest or weed control at 200 g/ha ([3]; AMATU_PPO2_L397E_F420V event D): 8% | pest or weed control at 50 g/ha ([3]; AMATU_PPO2_L397E_F420V event L): 0% | pest or weed control at 100 g/ha ([3]; AMATU_PPO2_L397E_F420V event L): 0% | pest or weed control at 200 g/ha ([3]; AMATU_PPO2_L397E_F420V event L): 15% | pest or weed control at 50 g/ha ([3]; AMATU_PPO2_R128A_F420V event A): 0% | pest or weed control at 100 g/ha ([3]; AMATU_PPO2_R128A_F420V event A): 43% | pest or weed control at 200 g/ha ([3]; AMATU_PPO2_R128A_F420V event A): 30% | pest or weed control at 50 g/ha ([3]; AMATU_PPO2_R128A_F420V event D): 0% | pest or weed control at 100 g/ha ([3]; AMATU_PPO2_R128A_F420V event D): 38% | pest or weed control at 200 g/ha ([3]; AMATU_PPO2_R128A_F420V event D): 28%

CCOC(=O)COC(=O)COc1ncccc1Oc1nc(-n2c(=O)cc(C(F)(F)F)n(C)c2=O)c(F)cc1Cl [Uracilpyridine 18, (2-ethoxy-2-oxo-ethyl) 2-[[3-[[3-chloro-5-fluoro-6-[3-methyl-2,6-dioxo-4-(trifluoromethyl)pyrimidin-1-yl]-2-pyridyl]oxy]-2-pyridyl]oxy]acetate]
IC50 [1]: 0.154 nM | Tolerance Factor (R/S) [2]: 753

C=CCOC(=O)COc1ncccc1Oc1nc(-n2c(=O)cc(C(F)(F)F)n(C)c2=O)c(F)cc1Cl [Uracilpyridine 13, allyl 2-[[3-[[3-chloro-5-fluoro-6-[3-methyl-2,6-dioxo-4-(trifluoromethyl)pyrimidin-1-yl]-2-pyridyl]oxy]-2-pyridyl]oxy]acetate]
IC50 [1]: 0.218 nM | Tolerance Factor (R/S) [2]: 421
